Columns and labels:
L1210/cisplatin = assay: In vivo antitumor efficacy, L1210/cisplatin; set-up: species or system BDF1 mice; conditions: for % T/C (mean survival time treated/control × 100): mice inoculated with L1210 cells (Table 6); for % T/C: days 1, 5, 9
Protocol: (§1) BDF1 mice were inoculated intraperitoneally with 10^5 L121O cells, 0.5 ml of 10% tumor brei or 10^6 M5076 cells using 5 animals in each group. Drug was administered […] on days 1, 5 and 9, except that the group infected with M5076 cells was also injected on day 13. % T/C represents mean survival time treated/mean survival time of the control times 100.
^a BDF1 mice were inoculated i.p. with 10^5 L1210 cells. Mic
received 3 i.p. drug injections days 1, 5, and 9.
(§2) ^d % T/C = (Mean Survival Time treated/Mean Survival Time control)
(§3) ^e LTS animals alive 60 days after inoculation of L1210/0 and B16 and […]

L1210 = assay: In vivo antitumor therapy against L1210; set-up: species or system BDF1 mice; conditions: days 1-9; for % T/C: optimal dose 12.5 mg/kg i.p.
[1] = LD50 of DACH-Pt(II) compounds, intraperitoneal; type: in vivo; conditions: i.p., CD1 albino mice
M5076 = assay: In vivo antitumor efficacy, M5076; set-up: species or system BDF1 mice; conditions: for % T/C (treated/control mean survival time): mice inoculated with M5076 cells (Table 6); for % T/C: days 1, 5, 9, 13; for LTS: alive 90 days after inoculation
Protocol: as §1
^c BDF1 mice were inoculated i.p. with 10^6 M5076 cells. Mic
received 4 i.p. drug injections on days 1, 5, 9 and 13.
as §2
^e LTS animals alive 60 days after inoculation of L1210/0 and B16 and
90 days after inoculation B5076.

[2] = In vivo renal and hematological toxicity of DACH-Pt(II) compounds; set-up: species or system CD1 albino mice; WBC d.5: unit not given here; conditions: single i.p. LD50 dose; for Body Weight d.5 (% of day 0) / WBC d.5: day 5; for WBC d.5: mean ± S.D.
Protocol: CD1 albino mice were administered a single intraperitoneal injection of the LD50 dose of each compound using 5 mice in each group. Five days later each mouse was bled under anesthesia from the axillary vessel. Blood urea nitrogen (BUN) and leucopenia were assessed for each sample.
^a CD1 Albino mice were administered a single i.p. injection of
the LD50 dose of each compound (5 mice/cmpd) and bled under
anesthesia from the axillary vessel 5 days later for blood urea nitrogen
(BUN) measurement and assessment of leucopenia. Results as presented as […]

[3] = tested on: wild-type L1210 leukemic cells; assay: In vitro cytotoxicity, growth inhibition of wild-type L1210 leukemic cells; type: cell-based, murine; conditions: 72 hours incubation
Protocol: Wild-type L1210 leukemic cells were grown as a suspension culture in McCoy's 5A medium supplemented with 10% horse serum, glutamine, streptomycin and penicillin at 37° C., 95% relative humidity and 5% CO2. Four ml of cell suspension (10^5 cells/ml) were added to culture tubes and the appropriate amount of drug was added (to yield 0.01, 0.1, 1 or 10 μg/ml final concentration) to the culture tubes. After 72 hours of incubation, the cell concentration in control and experimental cultures were determined with the aid of the Coulter counter model ZBf and the percent of growth inhibition calculated.

B16 melanoma = assay: In vivo antitumor efficacy, B16 melanoma; set-up: species or system BDF1 mice; conditions: for % T/C (mean survival time treated/control x 100): mice inoculated with B16 cells (Table 6); for % T/C: days 1, 5, 9
Protocol: as §1, §2, §3

With “1,1-Cyclobutanedicarboxylato(cis-DACH)Pt(II).11/2H2 O [Compound 13]” the “% T/C (mean survival time treated/control × 100)” value (L1210/cisplatin) was 150%, the “% T/C” value (L1210/cisplatin; opt. dose 150 mg/kg i.p.) was 150% and the “Long-term Survivors” value (L1210; 12.5 mg/kg i.p., alive 30 days after tumor inoculation) was 1/6. The “% T/C” value (L1210) was 253%, the LD50 [1] was 215 mg/kg and the long term survivor (M5076; M5076 inoculation (Table 6)) was 5/5. For the same compound, the “% T/C (treated/control mean survival time)” value (M5076) was 400%, the “% T/C” value (M5076; opt. dose 100 mg/kg i.p.) was 400% and the LTS (M5076; opt. dose 100 mg/kg i.p.) was 5/5. For the same compound, the “Survivors on d.5” value [2] was 5/5, the “Body Weight d.5 (% of day 0)” value [2] was 82 % of day 0 and the “WBC d.5” value [2] was 1.13 ± 0.28. For the same compound, the ID50 [3] was 3.30 µg/mL, the long term survivor (B16 melanoma; B16 inoculation (Table 6)) was 1/5 and the “% T/C (mean survival time treated/control x 100)” value (B16 melanoma) was 200%. The “% T/C” value (B16 melanoma; opt. dose 100 mg/kg i.p.) was 200% and the LTS (B16 melanoma; opt. dose 100 mg/kg i.p., alive 60 days after inoculation) was 1/5.
In the case of N[C@H]1CCCC[C@@H]1N.O.O.O=C([O-])C1(C(=O)[O-])CCC1.[Pt+2] (stereo in doubt) [Compound 12, 1,1-Cyclobutanedicarboxylato(trans-S,S-DACH)Pt(II).2H2 O], the “% T/C (mean survival time treated/control × 100)” value (L1210/cisplatin) is reported as 176%, the “% T/C” value (L1210/cisplatin; opt. dose 100 mg/kg i.p.) is reported as 176% and the “% T/C” value (L1210) is reported as 120%. The LD50 [1] was 230 mg/kg, the “% T/C (treated/control mean survival time)” value (M5076) was 231% and the “% T/C” value (M5076; opt. dose 50 mg/kg i.p.) was 231%. For the same compound, the LTS (M5076; opt. dose 50 mg/kg i.p.) was 1/5, the “Survivors on d.5” value [2] was 3/5 and the “Body Weight d.5 (% of day 0)” value [2] was 114 % of day 0. The “WBC d.5” value [2] was 3.42 ± 1.93, the ID50 [3] was 1.65 µg/mL and the “% T/C (mean survival time treated/control x 100)” value (B16 melanoma) was 104%. For the same compound, the “% T/C” value (B16 melanoma; opt. dose 50 mg/kg i.p.) was 104%.

— US5132323A, “1,2-diaminocyclohexane-platinum complexes with antitumor activity” (Board of Regents, The University of Texas System, priority 1990, dated 1992)
